# Measurements published in US20070135383A1, “Phospholipase inhibitors, including multi-valent phospholipase inhibitors, and use thereof, including as lumen-localized phospholipase inhibitors” (priority 2005, published 2007).
# Columns and labels:
# Porcine PLA2 IB = molecular target: T1, Porcine PLA2 IB (Sus scrofa, UniProt P00592); assay: Continuous fluorimetric PLA2 assay, PPyrPG vesicles (Example 1B-1); type: biochemical; conditions: restated in Example 10, refers to Example 1B-1; read-out: IC-50 value
# T1 construct: purchased
# Text: A continuous fluorimetric assay for PLA2 activity described in the literature was used to determine IC (Leslie, C C and Gelb, M H (2004) Methods in Molecular Biology “Assaying phospholipase A2 activity”, 284: 229-242, Singer, A G, et al. (2002) Journal of Biological Chemistry “Interfacial kinetic and binding properties of the complete set of human and mouse groups I, II, V, X, and XII secreted phospholipases A2”, 277: 48535-48549, Bezzine, S, et al. (2000) Journal of Biological Chemistry “Exogenously added human group X secreted phospholipase A(2) but not the group IB, IIA, and V enzymes efficiently release arachidonic acid from adherent mammalian cells”, 275: 3179-3191) and references therein.
# Generally, this assay used a phosphatidylglycerol (or phosphatidylmethanol) substrate with a pyrene fluorophore on the terminal end of the sn-2 fatty acyl chain. […] The effect of a given inhibitor and inhibitor concentration on any given phospholipase can be determined. […]
# In this example, the procedure was performed as follows: • 1. […] The fluorescence was read using an excitation of 342 nm and an emission of 395 nm.
# In this example, the IC50 was calculated using the BioDataFit 1.02 (Four Parameter Model) software package. […]
# [1] = system: wild-type C57BL/6 mice on high fat/high sucrose diet; assay: In-vivo evaluation on high fat/high sucrose diabetogenic diet, 10 weeks (Example 10); design: species or system mouse; conditions: for fasting glucose levels: low dose 25 mg/kg/day
# Protocol: ILY-4001 (FIG. 7) was evaluated as a PLA2 IB inhibitor in a set of experiments using wild-type mice and genetically deficient PLA2 (−/−) mice (also referred to herein as PLA2 knock-out (KO) mice). In these experiments, wild-type and PLA2 (−/−) mice were maintained on a high fat/high sucrose diet, details of which are described below.
# Briefly, four groups were set up, each having six mice. Three of the groups included six wild-type PLA2 (+/+) mice in each group (eighteen mice total), and one of the groups included six genetically deficient PLA2 (−/−) mice. One of the wild-type groups was used as a wild-type control group, and was not treated with ILY-4001. The other two wild-type groups were treated with ILY-4001—one group at a lower dose (indicated as “L” in Table 1) of 25 mg/kg/day, and the other at a higher dose (indicated as “H” in Table 1) of 90 mg/kg/day. The group comprising the PLA2 (−/−) mice was used as a positive control group.
# The experimental protocol used in this study was as follows. The four groups of mice, including wild type and isogenic PLA2 (−/−) C57BL/J mice were acclimated for three days on a low fat/low carbohydrate diet. After the three day acclimation phase, the animals were fasted overnight and serum samples taken to establish baseline plasma cholesterol, triglyceride, and glucose levels, along with baseline body weight. The mice in each of the treatment groups were then fed a high fat/high sucrose diabetogenic diet (Research Diets D12331). 1000 g of the high fat/high sucrose D12331 diet was composed of casein (228 g), DL-methionine (2 g), maltodextrin 10 (170 g), sucrose (175 g), soybean oil (25 g), hydrogenated coconut oil (333.5 g), mineral mix S10001 (40 g), sodium bicarbonate (10.5 g), potassium citrate (4 g), vitamin mix V10001 (10 g), and choline bitartrate (2 g). This diet was supplemented with ILY-4001 treatments such that the average daily dose of the compound ingested by a 25 g mouse was: 0 mg/kg/day (wild-type control group and PLA2 (−/−) control group); 25 mg/kg/day (low-dose wild-type treatment group), or 90 mg/kg/day (high-dose wild-type treatment group). The animals were maintained on the high fat/high sucrose diet, with the designated ILY-4001 supplementation, for a period of ten weeks.
# Body weight measurements were taken for all animals in all treatment and control groups at the beginning of the treatment period and at 4 weeks and 10 weeks after initiation of the study. (See Example 10A). Blood draws were also taken at the beginning of the treatment period (baseline) and at 4 weeks and 10 weeks after initiation of the study, in order to determine fasting glucose (See Example 10B). Cholesterol and triglyceride levels were determined from blood draws taken at the beginning of the treatment (baseline) and at ten weeks. (See […]).
# [2] = low and high doses (25 and 90 mg/kg/day), 10 weeks
# T1 sequence (P00592 23-146): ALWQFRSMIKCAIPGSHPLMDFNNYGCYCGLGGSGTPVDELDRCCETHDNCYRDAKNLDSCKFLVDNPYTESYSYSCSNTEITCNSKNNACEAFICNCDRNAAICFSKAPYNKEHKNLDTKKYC
smiles,measurement,setting,value
"Cc1c(C(=O)C(N)=O)c2c(OCC(=O)O)cccc2n1Cc1ccccc1-c1ccccc1 [ILY-4001, 2-(3-(2-amino-2-oxoacetyl)-1-(biphenyl-2-ylmethyl)-2-methyl-1H-indol-4-yloxy)acetic acid]",IC50,Porcine PLA2 IB,~62 nM
same,body weight gain,"[1]; 25 mg/kg/d and 90 mg/kg/d in diet, week 4 and week 10, vs wild-type control",significantly reduced body weight gains
same,plasma levels of cholesterol,[1]; [2],substantially reduced
same,plasma levels of triglycerides,[1]; [2],substantially reduced
same,fasting glucose levels,[1]; week four,moderately beneficial effect
same,fasting glucose levels,[1]; week ten,beneficial effect was not observed
